Literature values, collected in patent US8367683B2, “Composition and method for treatment of warts” (Medcara, L.L.C., priority 2005, dated 2013).

Tested on: warts
Conditions: even with patient compliance; applied several times a day over weeks to months

**Q.** With `O=C(O)c1ccccc1O` [salicylic acid] as the molecule, how does the “share of users who experience success” value read?
**A.** less than half
